Measurements from US20110104301A1, “METHODS OF REDUCING PAIN AND INFLAMMATION” (Georgetown University, A Congressionally Chartered …, priority 2008, published 2011).

Key:
Drosophila TRPA1 = biological target: T1, Drosophila TRPA1 (Drosophila melanogaster, UniProt Q7Z020); test: Current-voltage recordings in dTRPA1-expressing HEK293 cells; format: cell-based; conditions: desflurane at concentrations up to 3 mM
T1 construct: expressed in transfected cells; host or cells: HEK293
T1 sequence (Q7Z020 1-1197): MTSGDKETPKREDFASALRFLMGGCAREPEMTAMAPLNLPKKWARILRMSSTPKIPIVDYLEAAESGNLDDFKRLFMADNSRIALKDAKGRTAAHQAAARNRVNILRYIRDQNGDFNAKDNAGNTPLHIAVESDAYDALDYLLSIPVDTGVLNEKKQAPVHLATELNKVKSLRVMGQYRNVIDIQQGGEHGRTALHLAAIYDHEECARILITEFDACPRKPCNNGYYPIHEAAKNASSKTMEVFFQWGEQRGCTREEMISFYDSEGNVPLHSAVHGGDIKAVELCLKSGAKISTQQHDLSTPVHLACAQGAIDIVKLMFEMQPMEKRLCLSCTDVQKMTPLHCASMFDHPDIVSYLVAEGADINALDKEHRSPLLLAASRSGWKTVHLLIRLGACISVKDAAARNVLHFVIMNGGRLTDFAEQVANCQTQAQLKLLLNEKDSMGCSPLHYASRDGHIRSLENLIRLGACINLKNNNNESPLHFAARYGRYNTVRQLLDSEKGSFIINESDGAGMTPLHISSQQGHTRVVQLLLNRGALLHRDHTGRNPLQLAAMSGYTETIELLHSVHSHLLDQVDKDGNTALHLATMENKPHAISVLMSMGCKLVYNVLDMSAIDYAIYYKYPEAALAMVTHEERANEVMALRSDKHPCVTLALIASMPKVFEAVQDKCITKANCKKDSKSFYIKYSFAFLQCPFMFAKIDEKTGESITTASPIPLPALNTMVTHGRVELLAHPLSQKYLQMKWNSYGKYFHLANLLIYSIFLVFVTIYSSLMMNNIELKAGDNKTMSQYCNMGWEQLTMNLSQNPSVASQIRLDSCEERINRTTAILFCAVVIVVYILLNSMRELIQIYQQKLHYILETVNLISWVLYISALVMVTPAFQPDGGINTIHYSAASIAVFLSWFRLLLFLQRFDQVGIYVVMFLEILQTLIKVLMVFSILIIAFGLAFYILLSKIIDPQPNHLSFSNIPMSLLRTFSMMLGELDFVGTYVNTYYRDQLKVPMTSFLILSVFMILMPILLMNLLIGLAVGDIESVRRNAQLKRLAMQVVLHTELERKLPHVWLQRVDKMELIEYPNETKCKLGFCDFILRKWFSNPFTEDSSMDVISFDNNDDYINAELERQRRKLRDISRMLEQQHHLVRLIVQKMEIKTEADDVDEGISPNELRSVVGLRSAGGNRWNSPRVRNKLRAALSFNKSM
Method: A genetic approach was used to identify critical sites in TRPA1 and TRPV1 required for activation by general anesthetics. Drosophila TRPA1 is insensitive to desflurane (at concentrations up to 3 mM). […] Note that dTRPA1 is insensitive to AITC. Next, several chimeric TRP proteins containing dTRPA1 (unresponsive to desflurane) and mTRPA1 were tested. For the dTRPA1-mN chimera, the mouse 720 amino acid N-terminus was exchanged for the drosophila N-terminus. The N-terminal domain contains essential binding sites for AITC, and therefore studying this chimera tests an important role for the N-terminus in anesthetic-sensing. […] The mTRPA1-dTM5 construct was then studied, which is the mouse protein containing the fifth transmembrane domain of the drosophila protein.

[1] = system: AITC-sensitive DRG neurons; test: Voltage- and current-clamp of DRG sensory neurons; format: cell-based, mouse; conditions: 0.9 mM, wild-type mice, voltage-clamp, 11 of 35
mutant S502A/S800A TRPV1 = biological target: T2, mutant S502A/S800A TRPV1 (Rattus norvegicus, UniProt O35433, S502A/S800A); test: Heat activation in oocytes expressing mutant S502A/S800A TRPV1; format: cell-based
T2 construct: expressed in transfected cells; host or cells: Xenopus laevis oocytes (cRNA injection)
Method: Oocyte electrophysiology. […] Oocytes were placed in a Perspex chamber and continuously superfused (5 ml min-1) with Ca2+-free solution containing (in mM): 100 NaCl, 2.5 KCl, 5 HEPES, 1 MgCl2 and titrated to pH 7.3 with 5 mM NaOH. For solutions <pH 6.0, HEPES was replaced with either 5 mM MES or 5 mM sodium citrate. Oocytes were routinely voltage-clamped at -60 mV at 22-23° C.

T2 sequence (O35433 whole entry S502A/S800A): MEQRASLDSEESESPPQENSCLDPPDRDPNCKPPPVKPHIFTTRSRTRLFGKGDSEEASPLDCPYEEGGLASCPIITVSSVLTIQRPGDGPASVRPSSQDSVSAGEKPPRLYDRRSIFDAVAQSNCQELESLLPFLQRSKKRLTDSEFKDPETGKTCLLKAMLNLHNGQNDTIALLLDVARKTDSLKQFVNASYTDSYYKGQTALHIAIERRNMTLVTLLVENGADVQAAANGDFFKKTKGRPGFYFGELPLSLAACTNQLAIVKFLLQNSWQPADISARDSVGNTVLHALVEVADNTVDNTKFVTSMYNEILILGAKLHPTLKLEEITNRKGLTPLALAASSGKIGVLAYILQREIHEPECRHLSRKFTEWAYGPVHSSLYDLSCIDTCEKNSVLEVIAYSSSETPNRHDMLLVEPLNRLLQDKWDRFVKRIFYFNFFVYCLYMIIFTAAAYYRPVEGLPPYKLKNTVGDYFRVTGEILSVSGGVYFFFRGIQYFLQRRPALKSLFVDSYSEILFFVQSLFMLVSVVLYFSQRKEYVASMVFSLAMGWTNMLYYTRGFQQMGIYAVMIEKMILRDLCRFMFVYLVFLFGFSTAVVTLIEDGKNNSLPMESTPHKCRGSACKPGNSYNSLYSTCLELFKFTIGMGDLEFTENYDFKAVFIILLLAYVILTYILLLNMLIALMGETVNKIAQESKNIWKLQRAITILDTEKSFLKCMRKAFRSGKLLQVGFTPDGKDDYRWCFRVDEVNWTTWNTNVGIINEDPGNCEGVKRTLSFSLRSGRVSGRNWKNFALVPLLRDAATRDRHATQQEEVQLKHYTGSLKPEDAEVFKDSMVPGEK

SMILES	Sensitivity of Drosophila TRPA1 (Drosophila TRPA1)	Neurons with evoked currents [1] [%]	Temperature threshold, mutant S502A/S800A TRPV1 (mutant S502A/S800A TRPV1; PDBu+isoflurane, n=3) [°C]	Temperature threshold, mutant S502A/S800A TRPV1 (mutant S502A/S800A TRPV1; isoflurane, n=5) [°C]
FC(F)OC(F)C(F)(F)F (stereo not shown) [desflurane]	insensitive	–	–	–
FC(F)OC(Cl)C(F)(F)F (stereo not shown) [isoflurane]	–	31	37.3±0.7	39.4±1.9
